# Laboratory results reported in patent publication US10472347B2, “Aminopyrazine compounds with A2A antagonist properties” (Merck Sharp & Dohme Corp., priority 2014, dated 2019).
# Molecular target: T1, human A2a receptor (Homo sapiens, UniProt P29274)
# T1 construct: purchased Perkin-Elmer RBHA2AM400UA; host or cells: HEK293 cells (membranes)
# Experiment: A2a competition binding assay, Scintillation Proximity technology
# Conditions: membranes from HEK293 cells expressing human A2a receptor; Ki by Cheng-Prusoff equation
# Summary of the method: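 Membranes from HEK293 cells expressing human A2a, adenosine deaminase-treated, incubated 1 h at room temperature with compound (3000 to 0.15 nM) and 0.5 nM tritiated pyrazolotriazolopyrimidine radioligand on WGA SPA beads in Ca/Mg-free PBS + 10 mM MgCl2. Non-specific binding with 1 μM CGS15943; Ki by Cheng-Prusoff.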
# T1 sequence (P29274 whole entry): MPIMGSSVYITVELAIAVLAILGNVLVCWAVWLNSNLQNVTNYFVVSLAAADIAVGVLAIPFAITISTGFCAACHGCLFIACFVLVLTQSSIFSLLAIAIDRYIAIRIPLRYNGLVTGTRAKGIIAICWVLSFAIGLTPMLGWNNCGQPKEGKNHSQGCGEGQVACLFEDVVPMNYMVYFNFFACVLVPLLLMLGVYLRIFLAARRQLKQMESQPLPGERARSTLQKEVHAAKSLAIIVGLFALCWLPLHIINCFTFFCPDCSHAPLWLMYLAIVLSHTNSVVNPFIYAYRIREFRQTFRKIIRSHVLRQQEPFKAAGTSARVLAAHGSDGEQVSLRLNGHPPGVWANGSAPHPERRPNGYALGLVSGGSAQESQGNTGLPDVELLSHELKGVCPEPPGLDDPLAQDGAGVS
row,Ki,SMILES
1,30.2 nM,"Cc1nc(C(=O)NCCCN2CCC(F)(F)C2)c(N)nc1-c1ncco1 [Ex-113, 3-amino-N-[3-(3,3-difluoropyrrolidin-1-yl)propyl]-6-methyl-5-(1,3-oxazol-2-yl)pyrazine-2-carboxamide]"
2,5.76 nM,"Cc1nc(C(=O)NCc2cn(CC3CC3)cn2)c(N)nc1-c1ncco1 [Ex-114, 3-amino-N-{[1-(cyclopropylmethyl)-1H-imidazol-4-yl]methyl}-6-methyl-5-(1,3-oxazol-2-yl)pyrazine-2-carboxamide]"
3,8.74 nM,"Cc1nc(C(=O)NC2CCC(F)(F)C2)c(N)nc1-c1ncco1 (stereo not drawn) [Ex-115, 3-amino-N-(3,3-difluorocyclopentyl)-6-methyl-5-(1,3-oxazol-2-yl)pyrazine-2-carboxamide]"
4,21.4 nM,"Cc1nc(C(=O)NC2CCCN(CC(F)(F)F)C2)c(N)nc1-c1ncco1 (stereo not drawn) [Ex-116, 3-amino-6-methyl-5-(1,3-oxazol-2-yl)-N-[1-(2,2,2-trifluoroethyl)piperidin-3-yl]pyrazine-2-carboxamide]"
5,104 nM,"Cc1nc(C(=O)NC2CCCNC2)c(N)nc1-c1ncco1 (stereo not drawn) [Ex-117, 3-amino-6-methyl-5-(1,3-oxazol-2-yl)-N-piperidin-3-ylpyrazine-2-carboxamide]"
6,31.7 nM,"Cc1nc(C(=O)N[C@H]2CC[C@H](C(F)(F)F)CC2)c(N)nc1-c1ncco1 [Ex-118, 3-amino-6-methyl-5-(1,3-oxaozl-2-yl)-N-[trans-4-(trifluoromethyl)cyclohexyl] pyrazine-2-carboxamide]"
7,6.24 nM,Cc1nc(C(=O)NCc2cccc(C(C)(C)O)n2)c(N)nc1-c1ncco1 [Ex-119]
8,5.81 nM,"Cc1cn(C)c(CNC(=O)c2nc(C)c(-c3ncco3)nc2N)n1 [Ex-120, 3-amino-N-[(1,4-dimethyl-1H-imidazol-2-yl)methyl]-6-methyl-5-(1,3-oxazol-2-yl)pyrazine-2-carboxamide]"
9,3.18 nM,"Cc1nc(C(=O)NCc2cccc(C(F)(F)F)n2)c(N)nc1-c1ncco1 [Ex-121, 3-amino-6-methyl-5-(1,3-oxazol-2-yl)-N-{[6-(trifluoromethyl)pyridin-2-yl]methyl}pyrazine-2-carboxamide]"
10,2.91 nM,"COCc1cccc(CNC(=O)c2nc(C)c(-c3ncco3)nc2N)n1 [Ex-122, 3-amino-N-{[6-(methoxymethyl)pyridin-2-yl]methyl}-6-methyl-5-(1,3-oxazol-2-yl)pyrazine-2-carboxamide]"
11,17.4 nM,"COCCNC(=O)c1nc(C)c(-c2ncco2)nc1N [Ex-123, 3-amino-N-(2-methoxyethyl)-6-methyl-5-(1,3-oxazol-2-yl)pyrazine-2-carboxamide]"
12,1.77 nM,"COc1ncccc1CNC(=O)c1nc(C)c(-c2ncco2)nc1N [Ex-124, 3-amino-N-[(2-methoxypyridin-3-yl)methyl]-6-methyl-5-(1,3-oxazol-2-yl)pyrazine-2-carboxamide]"
13,18.8 nM,"Cc1nc(C(=O)N2CCc3cccnc3C2)c(N)nc1-c1ncco1 [Ex-125, 3-(5,8-dihydro-1,7-naphthyridin-7(6H)-ylcarbonyl)-5-methyl-6-(1,3-oxazol-2-yl)pyrazin-2-amine]"
14,83 nM,"Cc1nc(C(=O)NCc2ncc(C(F)(F)F)cn2)c(N)nc1-c1ncco1 [Ex-126, 3-amino-6-methyl-5-(1,3-oxazol-2-yl)-N-{[5-(trifluoromethyl)pyrimidin-2-yl]methyl}pyrazine-2-carboxamide]"
15,0.279 nM,"Cc1nc(C(=O)NCc2nccn2C2CCC2)c(N)nc1-c1ncco1 [Ex-127, 3-amino-N-[(1-cyclobutyl-1H-imidazol-2-yl)methyl]-6-methyl-5-(1,3-oxazol-2-yl)pyrazine-2-carboxamide]"
16,12.5 nM,"Cc1nc(C(=O)NCC2CC2)c(N)nc1-c1ncco1 [Ex-128, 3-amino-N-(cyclopropylmethyl)-6-methyl-5-(1,3,-oxazol-2-yl)pyrazine-2-carboxamide]"
17,0.198 nM,"Cc1nc(C(=O)NCc2cc(F)ccc2O)c(N)nc1-c1ncco1 [Ex-129, 3-amino-N-(5-fluoro-2-hydroxybenzyl)-6-methyl-5-(1,3-oxazol-2-yl)pyrazine-2-carboxamide]"
18,3.41 nM,"Cc1nc(C(=O)N[C@H]2c3ccccc3C[C@@H]2O)c(N)nc1-c1ncco1 [Ex-130, 3-amino-N-[(1S,2S)-2-hydroxy-2,3-dihydro-1H-inden-1-yl]-6-methyl-5-(1,3-oxazol-2-yl)pyrazine-2-carboxamide]"
19,10.3 nM,"Cc1nc(C(=O)N2CCC2c2ccccc2)c(N)nc1-c1ncco1 (stereo not drawn) [Ex-131, 5-methyl-6-(1,3-oxazol-2-yl)-3-[(2-phenylazetidin-1-yl)carbonyl]pyrazin-2-amine]"
20,0.357 nM,"Cc1nc(C(=O)NCc2cccs2)c(N)nc1-c1ncco1 [Ex-132, 3-amino-6-methyl-5-(1,3-oxazol-2-yl)-N-(thiophen-2-ylmethyl)pyrazine-2-carboxamide]"
21,2.59 nM,"Cc1nc(C(=O)NCc2ccc(C(C)C)cc2)c(N)nc1-c1ncco1 [Ex-133, 3-amino-6-methyl-N-[4-(1-methylethyl)benzyl]-5-(1,3-oxazol-2-yl)pyrazine-2-carboxamide]"

row,Ki,SMILES
1,3.39 nM,"Cc1nc(C(=O)NCc2ccc(C3CC3)cc2)c(N)nc1-c1ncco1 [Ex-134, 3-amino-N-(4-cyclopropylbenzyl)-6-methyl-5-(1,3-oxazol-2-yl)pyrazine-2-carboxamide]"
2,0.169 nM,"Cc1cccc(CNC(=O)c2nc(C)c(-c3ncco3)nc2N)c1F [Ex-135, 3-amino-N-(2-fluoro-3-methylbenzyl)-6-methyl-5-(1,3-oxazol-2-yl)pyrazine-2-carboxamide]"
3,0.267 nM,"Cc1cc(C)c(CNC(=O)c2nc(C)c(-c3ncco3)nc2N)c(C)c1 [Ex-136, 3-amino-6-methyl-5-(1,3-oxazol-2-yl)-N-(2,4,6-trimethylbenzyl)pyrazine-2-carboxamide]"
4,0.307 nM,"Cc1cc(CNC(=O)c2nc(C)c(-c3ncco3)nc2N)ccc1F [Ex-137, 3-amino-N-(4-fluoro-3-methylbenzyl)-6-methyl-5-(1,3-oxazol-2-yl)pyrazine-2-carboxamide]"
5,0.588 nM,"Cc1nc(C(=O)N[C@H]2CCc3ccccc32)c(N)nc1-c1ncco1 [Ex-138, 3-amino-N-[(1S)-2,3-dihydro-1H-inden-1-yl]-6-methyl-5-(1,3-oxazol-2-yl)pyrazine-2-carboxamide]"
6,3.03 nM,"CCc1ccc(CNC(=O)c2nc(C)c(-c3ncco3)nc2N)cc1 [Ex-139, 3-amino-N-(4-ethylbenzyl)-6-methyl-5-(1,3-oxazol-2-yl)pyrazine-2-carboxamide]"
7,0.225 nM,"Cc1nc(C(=O)N[C@@H]2CCc3ccccc32)c(N)nc1-c1ncco1 [Ex-140, 3-amino-N-[(1R)-2,3-dihydro-1H-inden-1-yl]-6-methyl-5-(1,3-oxazol-2-yl)pyrazine-2-carboxamide]"
8,0.391 nM,"Cc1nc(C(=O)NCc2cccn2C)c(N)nc1-c1ncco1 [Ex-141, 3-amino-6-methyl-N-[(1-methyl-1H-pyrrol-2-yl)methyl]-5-(1,3-oxazol-2-yl)pyrazine-2-carboxamide]"
9,0.704 nM,"Cc1nc(C(=O)NCc2ccc(C)n2C)c(N)nc1-c1ncco1 [Ex-142, 3-amino-N-[(1,5-dimethyl-1H-pyrrol-2-yl)methyl]-6-methyl-5-(1,3-oxazol-2-yl)pyrazine-2-carboxamide]"
10,1.72 nM,"COc1cccc(CNC(=O)c2nc(C)c(-c3ncco3)nc2N)c1 [Ex-143, 3-amino-N-(3-methoxybenzyl)-6-methyl-5-(1,3-oxazol-2-yl)pyrazine-2-carboxamide]"
11,0.382 nM,"COc1ccccc1CNC(=O)c1nc(C)c(-c2ncco2)nc1N [Ex-144, 3-amino-N-(2-methoxybenzyl)-6-methyl-5-(1,3-oxazol-2-yl)pyrazine-2-carboxamide]"
12,0.601 nM,"Cc1nc(C(=O)N[C@H]2COc3ccccc32)c(N)nc1-c1ncco1 [Ex-147, 3-amino-N-[(3R)-2,3-dihydro-1-benzofuran-3-yl]-6-methyl-5-(1,3-oxazol-2-yl)pyrazine-2-carboxamide]"
13,15.8 nM,"COc1ccc(CNC(=O)c2nc(C)c(-c3ncco3)nc2N)cc1 [Ex-148, 3-amino-N-(4-methoxybenzyl)-6-methyl-5-(1,3-oxazol-2-yl)pyrazine-2-carboxamide]"
14,0.855 nM,"Cc1nc(C(=O)NCc2nc3ccccc3s2)c(N)nc1-c1ncco1 [Ex-149, 3-amino-N-(1,3-benzothiazol-2-ylmethyl)-6-methyl-5-(1,3-oxazol-2-yl)pyrazine-2-carboxamide]"
15,4.58 nM,"Cc1nc(C(=O)N2Cc3cncnc3C2)c(N)nc1-c1ncco1 [Ex-151, 3-(5,7-dihydro-6H-pyrrolo[3,4-d]pyrimidin-6-ylcarbonyl)-5-methyl-6-(1,3-oxazol-2-yl)pyrazin-2-amine]"
16,0.141 nM,"Cc1nc(C(=O)NCc2ccccc2O)c(N)nc1-c1ncco1 [Ex-153, 3-amino-N-(2-hydroxybenzyl)-6-methyl-5-(1,3-oxazol-2-yl)pyrazine-2-carboxamide]"
17,0.125 nM,"Cc1ccc(O)c(CNC(=O)c2nc(C)c(-c3ncco3)nc2N)c1 [Ex-154, 3-amino-N-(2-hydroxy-5-methylbenzyl)-6-methyl-5-(1,3-oxazol-2-yl)pyrazine-2-carboxamide]"
18,13.9 nM,"Cc1nc(C(=O)NCc2ccc(O)cc2)c(N)nc1-c1ncco1 [Ex-155, 3-amino-N-(4-hydroxybenzyl)-6-methyl-5-(1,3-oxazol-2-yl)pyrazine-2-carboxamide]"
19,68.9 nM,"Cc1nc(C(=O)N[C@@H]2c3ccccc3C[C@@H]2O)c(N)nc1-c1ncco1 [Ex-156, 3-amino-N-[(1R,2S)-2-hydroxy-2,3-dihydro-1H-inden-1-yl]-6-methyl-5-(1,3-oxazol-2-yl)pyrazine-2-carboxamide]"
20,0.601 nM,"Cc1nc(C(=O)N[C@@H]2COc3ccccc32)c(N)nc1-c1ncco1 [Ex-157, 3-amino-N-[(3S)-2,3-dihydro-1-benzofuran-3-yl]-6-methyl-5-(1,3-oxazol-2-yl)pyrazine-2-carboxamide]"
21,1.97 nM,"Cc1nc(C(=O)NCc2cccc(O)c2)c(N)nc1-c1ncco1 [Ex-158, 3-amino-N-(3-hydroxybenzyl)-6-methyl-5-(1,3-oxazol-2-yl)pyrazine-2-carboxamide]"
